# Experimental data: PMC11773557, “NADPH-Independent Fluorescent Probe for Live-Cell Imaging of Heme Oxygenase-1” (ACS Sensors, 2025)
# Where a SMILES comes first, the peptide text is derived from it. The star is where a group is joined. NBD = O=[N+]([O-])c1ccc(*)c2nonc12; Ahx = NCCCCCC(=O)O
# T1: recombinant HO-1 protein with a 6xHis tag (Homo sapiens, UniProt P09601)
# T1 construct: 6xHis
# T1 sequence (P09601 1-288): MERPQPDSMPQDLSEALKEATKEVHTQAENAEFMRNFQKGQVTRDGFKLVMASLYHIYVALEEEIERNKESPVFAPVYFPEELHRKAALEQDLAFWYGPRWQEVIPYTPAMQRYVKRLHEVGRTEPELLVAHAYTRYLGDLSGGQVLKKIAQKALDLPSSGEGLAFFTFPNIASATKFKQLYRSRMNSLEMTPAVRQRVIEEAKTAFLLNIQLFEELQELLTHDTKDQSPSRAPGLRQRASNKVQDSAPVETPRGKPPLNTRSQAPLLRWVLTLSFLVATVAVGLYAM
# T2: NBD-P5
# T2 construct: also called YWFYR-CONH2; NBD-Pn (n = 5); source: synthetic peptide, NBD-Ahx coupled with PyBOP, TFA cleavage, reversed-phase HPLC
# T2 peptide: {NBD-Ahx}-YWFYR-NH2
# T3: NBD-P4
# T3 construct: caveolin-1 residues Y97-Y100 (the pentapeptide without arginine 101); also called YWFY-CONH2; NBD-Pn (n = 4); source: synthetic peptide, NBD-Ahx coupled with PyBOP, TFA cleavage, reversed-phase HPLC
# T3 peptide: {NBD-Ahx}-YWFY-NH2
# B1: Heme oxygenase-1 (enzyme)
# chain: MERPQPDSMPQDLSEALKEATKEVHTQAENAEFMRNFQKGQVTRDGFKLVMASLYHIYVALEEEIERNKESPVFAPVYFPEELHRKAALEQDLAFWYGPRWQEVIPYTPAMQRYVKRLHEVGRTEPELLVAHAYTRYLGDLSGGQVLKKIAQKALDLPSSGEGLAFFTFPNIASATKFKQLYRSRMNSLEMTPAVRQRVIEEAKTAFLLNIQLFEELQELLTHDTKDQSPSRAPGLRQRASNKVQDSAPVETPRGKPPLNTRSQAPLLRWVLTLSFLVATVAVGLYAM
# What was measured:
# [1] = test system: HO-1 levels in live A549 cells; assay: Fluorescence imaging of HO-1 levels with NBD-P5 in treated A549 cells; assay type: cell-based, human; conditions: A549 cells pretreated 24 h (hemin 50 μM, ZnPP 1 μM), then NBD-P5 10 μM 2 h, confocal imaging
# Description: (§1) 37°C for 24 h. Cells were treated with 50 μM hemin, 1 μM ZnPP or DMSO. […]
# A549 cells (8×10^3 cells per well) were seeded into confocal dish and incubated in a CO2 incubator at 37°C for 24 h. Cells were treated with 50 μM hemin, 1 μM ZnPP or DMSO. After 24 h incubation, 10 μM NBD-P 5 was added and incubated with the cells for 2 h. The cells were then fixed with 4% polyoxymethylene for 20 min. Afterwards, the nuclei were stained using DAPI for 20 min.
# Fluorescence images were measured by ZEISS LSM 980 with Airyscan 2 confocal laser scanning
# [2] = test system: HO-1 expression in A549 cells; assay: HO-1 ELISA of treated A549 cells; assay type: cell-based, human; conditions: 24 h, HO-1 ELISA kit, versus DMSO control
# Description: 7. Enzyme linked immunosorbent assay (ELISA)
# A549 cells (8×10^3 cells per well) were seeded in 6-well plates and incubated in a CO2 incubator at 37°C for 24 h. Cells were treated with 50 μM hemin, 1 μM ZnPP or DMSO. After 24 h incubation, cells were washed with PBS, lysed with NP-40 buffer containing 1.0 mM PMSF, followed by centrifugation (12000 rpm, 5 min) to harvest the supernatant. The assay was carried out by strictly following instructions provided. Absorbance at 450 nm was recorded using the BioTek Synergy-2 Microplate Reader to calculate the HO-1 concentration under different treatments. […]
# (§2) 37°C for 24 h. Cells were treated with 50 μM hemin, 1 μM ZnPP or DMSO. After 24 h incubation, 10 μM NBD-P 5 was added and incubated with the cells for 2 h. The cells were then fixed with 4% polyoxymethylene for 20 min. Afterwards, the nuclei were stained using DAPI for 20 min. […]
# [3] = test system: A549 cells; assay: Colocalization experiment with organelle trackers; assay type: cell-based, human; conditions: 10 μM probe 2 h
# Description: 10. Colocalization experiment
# A549 cells (8×10^3 cells per well) were seeded into confocal dish and incubated in a CO2 incubator at 37°C for 24 h. After incubation with NBD-P5 (10 μM) for 2 h, cells were co-stained with ER-Tracker red (400 nM) for 20 min, Lyso-Tracker red (60 nM) for 30 min, or Mito-Tracker red (50 nM) for 30 min. Fluorescence images were measured by ZEISS LSM 980 with Airyscan 2 confocal laser scanning
# [4] = target: human serum albumin (HSA) (Homo sapiens, UniProt P02768); assay: Selectivity assay, emission with HSA; assay type: binding; conditions: 4.5 μM HSA, 2 μM probe, pH 7.4 PBS, emission at 526 nm
# Chain of human serum albumin (HSA) (P02768 25-609): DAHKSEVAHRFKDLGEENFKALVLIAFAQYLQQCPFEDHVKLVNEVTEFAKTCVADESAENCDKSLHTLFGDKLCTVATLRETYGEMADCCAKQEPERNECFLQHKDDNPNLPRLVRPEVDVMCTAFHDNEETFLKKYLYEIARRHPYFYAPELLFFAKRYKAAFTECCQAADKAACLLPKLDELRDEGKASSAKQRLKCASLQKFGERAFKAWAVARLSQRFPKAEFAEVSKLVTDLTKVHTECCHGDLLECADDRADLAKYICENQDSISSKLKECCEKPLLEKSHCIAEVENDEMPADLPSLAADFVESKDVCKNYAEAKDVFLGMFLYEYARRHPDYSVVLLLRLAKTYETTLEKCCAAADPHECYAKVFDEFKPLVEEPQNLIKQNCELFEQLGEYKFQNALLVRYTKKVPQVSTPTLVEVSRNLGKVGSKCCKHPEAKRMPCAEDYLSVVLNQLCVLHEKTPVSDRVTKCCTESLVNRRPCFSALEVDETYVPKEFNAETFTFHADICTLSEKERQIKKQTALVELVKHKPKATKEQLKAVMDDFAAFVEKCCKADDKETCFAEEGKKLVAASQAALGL
# Description: (§3) 4. Photophysical measurements
# (§4) All spectra were measured using a stock solution of the probes (1 mM in DMSO) which was diluted with pH 7.4 PBS buffer to the desired concentration. […]
# (§5) Selectivity assay was performed by measuring emission of NBD-Pn in pH 7.4 PBS buffer in presence of varying analytes including HO-1, common proteins, amino acids, and biologically relevant ions. All measurements were conducted using a 700 μL quartz cuvette and within a minute after addition of the analyte. […]
# [5] = target: T1, recombinant HO-1 protein with a 6xHis tag; assay: Luminescence titration of NBD-Pn with HO-1; assay type: binding; conditions: 4.5 μM HO-1, 2 μM probe, pH 7.4 PBS, λex = 475 nm; for increase in fluorescence intensity on addition of HO-1: emission at 526 nm, measured within 1 min
# Description: as §3, §4
# All measurements were conducted using a 700 μL quartz cuvette and within a minute after addition of the analyte. […]
# [6] = target: bovine serum albumin (BSA) (Bos taurus, UniProt P02769); assay: Selectivity assay, emission with BSA; assay type: binding; conditions: 4.5 μM BSA, 2 μM probe, pH 7.4 PBS, emission at 526 nm
# Chain of bovine serum albumin (BSA) (P02769 25-607): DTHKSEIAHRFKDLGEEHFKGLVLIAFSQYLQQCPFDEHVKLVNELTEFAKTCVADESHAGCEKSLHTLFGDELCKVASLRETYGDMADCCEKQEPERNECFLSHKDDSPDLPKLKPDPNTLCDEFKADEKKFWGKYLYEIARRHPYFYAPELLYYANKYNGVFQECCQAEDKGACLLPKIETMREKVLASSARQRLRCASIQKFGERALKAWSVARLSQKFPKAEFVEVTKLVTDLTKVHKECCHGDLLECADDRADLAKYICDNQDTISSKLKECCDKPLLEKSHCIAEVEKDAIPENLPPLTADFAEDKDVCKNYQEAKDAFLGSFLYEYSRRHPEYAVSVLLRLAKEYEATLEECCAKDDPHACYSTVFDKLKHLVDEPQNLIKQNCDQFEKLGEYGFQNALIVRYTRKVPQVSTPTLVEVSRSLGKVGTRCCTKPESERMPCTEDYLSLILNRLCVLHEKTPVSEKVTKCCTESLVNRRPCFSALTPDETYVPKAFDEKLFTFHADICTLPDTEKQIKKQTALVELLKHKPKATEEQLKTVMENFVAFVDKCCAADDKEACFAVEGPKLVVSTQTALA
# Description: as §3, §4, §5
# [7] = test system: A549 cells; assay: Flow cytometry analysis of cellular uptake; assay type: cell-based, human; conditions: 10 μM, time course of 2.5 h
# Description: as §1
# 8. Flow cytometry analysis
# A549 cells were first seeded into 12-well plates (1.0 × 10^5 cells/well) and incubated overnight to achieve adherence. Then, 10 μM NBD-P 5 was added, and incubated for different times. The cells were washed twice with cold PBS and harvested by trypsinization, followed by centrifugation (1500 x g, 5.0 min). The obtained cells were re-suspended in PBS and analyzed using flow cytometry (BD […]
# as §2
# [8] = test system: HO-1 expression; conditions: study by Fang and co-workers; cited from earlier work
# [9] = target: T2, NBD-P5; assay: other fluorescence titration; emission of the NBD probe (2 uM, ex 475 nm, read at 526 nm) on addition of protein in solution (HO-1 in increasing concentrations up to 4.5 uM; HSA, BSA at 4.5 uM); measured within a minute after addition; conditions: both partners purified
# [10] = target: T3, NBD-P4; assay: as above; conditions: both partners purified
molecule,measurement,setting,value
"C=CC1=C(C)c2cc3[n-]c(cc4[n-]c(cc5nc(cc1n2)C(C)=C5C=C)c(C)c4CCC(=O)O)c(CCC(=O)O)c3C.[Zn+2] [ZnPP, zinc(II) protoporphyrin]",NBD-P5 fluorescence in treated cells compared with control cells,[1],relatively weaker fluorescence signal
same,HO-1 level relative to DMSO control,[2]; 1 μM,0.89 fold
N=C(N)NCCC[C@H](NC(=O)[C@H](Cc1ccc(O)cc1)NC(=O)[C@H](Cc1ccccc1)NC(=O)[C@H](Cc1c[nH]c2ccccc12)NC(=O)[C@H](Cc1ccc(O)cc1)NC(=O)CCCCCNc1ccc([N+](=O)[O-])c2nonc12)C(N)=O [NBD-P5] (HELM PEPTIDE1{[O=[N+]([O-])c1ccc([*:2])c2nonc12].[O=C(CCCCCN[*:1])[*:2]].Y.W.F.Y.R.[am]}$$$$V2.0),Pearson's correlation coefficient with ER-Tracker red,"[3]; ER-Tracker red 400 nM 20 min, ImageJ",0.97
same,colocalization with either Lyso-Tracker or Mito-Tracker,[3]; Lyso-Tracker red 60 nM or Mito-Tracker red 50 nM 30 min,not as significant as that with ER-Tracker
same,fluorescence change on addition of HSA,[4],small fluorescence increase
same,blue shift in fluorescence wavelength maxima on addition of HO-1,[5],24 nm
same,increase in fluorescence intensity on addition of HO-1,[5],9 fold
same,fluorescence change on addition of BSA,[6],small fluorescence increase
same,uptake by A549 cells,[7],increased rapidly in the first 1 h
NC(=O)[C@H](Cc1ccc(O)cc1)NC(=O)[C@H](Cc1ccccc1)NC(=O)[C@H](Cc1c[nH]c2ccccc12)NC(=O)[C@H](Cc1ccc(O)cc1)NC(=O)CCCCCNc1ccc([N+](=O)[O-])c2nonc12 [NBD-P4] (HELM PEPTIDE1{[O=[N+]([O-])c1ccc([*:2])c2nonc12].[O=C(CCCCCN[*:1])[*:2]].Y.W.F.Y.[am]}$$$$V2.0),increase in fluorescence intensity on addition of HO-1,[5],6 fold
CC(C)(C)c1cc(O)ccc1O [tBHQ],upregulation of HO-1,[8],about 1.6 fold
hemin,NBD-P5 fluorescence in treated cells compared with control cells,[1],significantly stronger green fluorescence
same,upregulation of HO-1 expression,[2]; 50 μM,around 1.53 fold
B1,fold increase in fluorescence intensity of the probe with 4.5 uM HO-1,[9],9 fold
same,fold increase in fluorescence intensity of the probe with HO-1,[10],6 fold
